Source: patent US7569537B2, “Peptide antagonists for inhibiting heat shock protein (Hsp 16.3) of Mycobacterium tuberculosis” (priority 2004, dated 2009)
No end group written: not given here.

How the values were obtained:
Hsp16.3 [1] = biological target: T1, Hsp16.3 (Mycobacterium tuberculosis, UniProt P9WMK1); details: reverse phage ELISA, A405, 30 μg/well Hsp16.3 or BSA
Hsp16.3 [2] = biological target: T1, Hsp16.3; test: NMR (TOCSY) amide proton chemical shifts of peptide free and with Hsp16.3; type: binding; details: 0.1 mM protein, 2 mM peptide, pH 7.0, 4 °C
Protocol: FIG. 5. Comparison of chemical shifts of amide protons of free peptide (Seq ID 10) (a) and peptide with Hsp16.3 protein (b). Resonance assignments are indicated with a one-letter amino acid code. All NMR spectra were taken in a Bruker DRX-500 spectrometer equipped with a Z-field gradient probe. All measurements were done in high precision 5-mm NMR tubes in 20 mM sodium phosphate buffer, pH 7.0, containing 250 mM NaCl in 90% H2O and 10% D2O at 4° C. TOCSY spectra were measured using standard pulse sequences in the Bruker pulse library using WATERGATE water suppression method. Standard Bruker software (Xwin-NMR version 1.3) was used to acquire and process the NMR data. The NMR samples were adjusted to a protein concentration of 0.1 mM and a 20-fold ligand excess (2 mM) over binding sites was used throughout the studies.
An important aspect of inhibitor development procedures is to understand the nature of interactions between the inhibitor and its target. […] As a part of this disclosure it is shown that histidine residues in one of the two peptide inhibitors namely Seq ID 10 interact with Hsp16.3 as determined by NMR.
All NMR spectra were taken in a Bruker DRX-500 NMR spectrometer equipped with a Z-field gradient probe. […] TOCSY spectra were measured using standard pulse sequences in the Bruker pulse library using WATERGATE water suppression method. […]

Hsp16.3 [3] = biological target: T1, Hsp16.3; test: ADH heat aggregation assay for inhibition of Hsp16.3 chaperon activity; type: biochemical
Protocol: FIG. 2. […] Aggregation assays were performed by heating 5 μM Alcohol dehydrogenase (ADH) to 50° C. directly in a spectrophotometer using a thermostated cuvette holder in a total reaction volume of 500 μl. Optical density was monitored at 360 nm for 1200 seconds and readings were taken at every 100 seconds interval. […] Then the same experiment was performed in the presence of increasing concentrations of the Hsp16.3 binding peptide Seq IDs 10. Aggregation of ADH in the absence of Hsp 16.3 (black triangle). Aggregation in the presence of Hsp 16.3 (black circle). The same experiment when performed in the presence of increasing concentrations of the Hsp 16.3 binding peptide (Seq ID 10) 25 μM (white square), 50 μM (black square), 100 μM (white triangle). Only peptide control (ADH+100 μM peptide) (white circle).
The binding of a peptide need not necessarily result in inhibition. Inhibition will happen only if binding leads to significant changes in the active site. […] A part of the invention is the development of a peptide inhibition assay for Hsp16.3. The method is based on aggregation based assays. The standard assay used for assaying the activity of alpha-crystallin like proteins is to study the protection it confers against heat induced aggregation of proteins, the aggregation activity being measured spectrophotometrically. […] Aggregation of 5 μM ADH at 50° C. can be measured as an apparent optical density at 360 nm using a spectrophotometer equipped with a thermostated cuvette holder in a total reaction volume of 500 μl. The chaperon activity of Hsp16.3 can be determined by mixing ADH with Hsp16.3 at a molar ratio of 5:4 which is equivalent to a ratio of about 12:1 between ADH and Hsp16.3 assuming a nonameric structure of Hsp16.3 as the functional unit (Chang et al., 1996) and aggregation rates again determined spectrophotometrically. […]
A part of the invention is the peptide inhibition assay for Hsp16.3 comprising of heat treating ADH alone, ADH+Hsp16.3 and ADH+Hsp16.3+25, 50 and 100 μM peptide. […] Aggregation of 5 μM ADH at 50° C. was measured as an apparent optical density at 360 nm using Hitachi spectrophotometer equipped with a thermostated cuvette holder in a total reaction volume of 500 μl. The chaperon activity of Hsp16.3 was determined by mixing ADH with Hsp16.3 at a molar ratio of 5:4 and aggregation rates were again determined spectrophotometrically. […]
Aggregation assays were performed by heating 5 μM Alcohol dehydrogenase (ADH) to 50° C. directly in a spectrophotometer using a thermostated cuvette holder in a total reaction volume of 500 μl. Absorbance was monitored at 360 nm (A360) for 1200 seconds and readings were taken at every 100 seconds interval. […] The increase in absorbance indicates aggregation of ADH. […]

human alphaB-crystallin = biological target: T2, human alphaB-crystallin (Homo sapiens, UniProt P02511); test: ADH heat aggregation assay with alphaB-crystallin instead of Hsp16.3; type: biochemical; details: 25, 50 and 100 μM peptide, ADH:alphaB-crystallin 5:4
T2 construct: made in house
T2 sequence (P02511 1-175): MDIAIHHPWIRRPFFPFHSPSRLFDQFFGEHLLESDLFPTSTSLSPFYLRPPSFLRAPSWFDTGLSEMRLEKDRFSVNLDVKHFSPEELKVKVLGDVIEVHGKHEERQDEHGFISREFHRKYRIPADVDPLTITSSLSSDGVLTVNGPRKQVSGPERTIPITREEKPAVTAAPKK
Protocol: FIG. 3. An example to show the specificity of the inhibitory peptides for Hsp16.3 and not for alphaB-crystallin—a component of human eye lens. A similar assay as described in FIG. 2 was performed using alphaB-crystalline instead of Hsp16.3. The molar ratio between ADH and alphaB-crystallin was maintained 5:4 as in the case of Hsp 16.3. Aggregation in the absence of alphaB-crystallin (black triangle). Aggregation in the presence of alphaB-crystalline (black circle). The same experiment was performed in the presence of increasing concentrations of the Hsp16.3 binding peptide (Seq ID 10) 25 μM (white square), 50 μM (black square), 100 μM (white triangle). Only peptide control (ADH+100 μM peptide) (white circle).
ADH upon being heated to 50° C. aggregates. This aggregation can be completely stopped when Hsp16.3 is added in such a way so as to obtain a molar ratio of ADH to Hsp 16.3 monomer of about 5:4. Incorporation of peptide at a concentration of 100 μM i.e. about 25 fold molar excess leads to significant inhibition of chaperon activity. […] Since it has been shown that Hsp16.3 has functional similarity with human alphaB-crystallin, an eye lens protein (Valdez et al., 2002), therefore the effect of these peptides on human alphaB-crystallin was examined. […] The vector used for expression of this protein was originally generated by Dr. W. C. […]

T1 sequence (P9WMK1 whole entry, looked up): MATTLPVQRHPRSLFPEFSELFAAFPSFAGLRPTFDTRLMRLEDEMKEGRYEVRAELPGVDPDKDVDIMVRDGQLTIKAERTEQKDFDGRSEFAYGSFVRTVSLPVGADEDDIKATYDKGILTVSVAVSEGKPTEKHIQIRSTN

KMHATNH [Seq ID 9]
binding of phage clone to Hsp16.3 compared to non-specific control BSA (background binding) (Hsp16.3 [1]): about three-fold

H-KMHATNHGGGS-NH2 [Seq ID 10]
chemical shift change of peptide amide protons on addition of Hsp16.3 (Hsp16.3 [2]): significant chemical shift occured in both histidines | IC50 (Hsp16.3 [3]): ~50 µM | inhibition of chaperon activity of Hsp16.3 (in words) (Hsp16.3 [3]; 25, 50 and 100 μM peptide): dose dependent inhibition | effect of peptide alone on aggregation of ADH (control without Hsp16.3) (Hsp16.3 [3]; ADH + 100 μM peptide, no Hsp16.3): does not influence the aggregation of ADH | inhibition of chaperon activity of alphaB-crystallin (in words) (human alphaB-crystallin): no inhibition

H-YPHHFKHRHIPIGGGS-NH2 [Seq ID 22]
IC50 (Hsp16.3 [3]): ~50 µM

YPHHFKHRHIPI [Seq ID 21]
binding of phage clone to Hsp16.3 compared to non-specific control BSA (background binding) (Hsp16.3 [1]): about three-fold
